We go through 18 molecules from patent publication US20230374067A1, “NOVEL PEPTOIDS AND USE THEREOF FOR PREVENTING OR TREATING CHRONIC PAIN” (Université Clermont Auvergne, priority 2020, published 2023).

The subject of data set [1] is OIPN mice (oxaliplatin-induced neuropathy model mice). Nature of the data set: Oxaliplatin-induced acute neuropathy in mice, paw immersion test (cold hypersensitivity). The format is in vivo. As for the experimental part:
(§1) Immersion test: The tail or paw was immersed in a water bath set at 10° C. or 46° C. until shrinkage was observed (cut-off time: 30 s). The average of two separate determinations of withdrawal latency was calculated (Janssen, Niemegeers & Dony, 1963).
Oxaliplatin-induced acute neuropathy in mice: Mice were injected intraperitoneally (i.p.) with 6 mg/kg oxaliplatin dissolved in 5% glucose directly after the first behavioral assessment. At 90 h after drug administration, corresponding to the time required to reach peak hyperalgesia (Descoeur et al., 2011), a second assessment of cold sensitivity and mechanical sensitivity was performed.

A further data set concerns neuropathic rats. Nature of the data set: Spinal nerve ligation induced neuropathy in rats, paw immersion test. The format is in vivo. As to conditions: neuropathy induced by traumatic nerve injury, intrathecal, 5 μg. The procedure: as §1
Spinal nerve ligation induced neuropathy in rats: According to the procedure of Kim and Chung (1992), rats were placed in the […] position and anesthetized with 10 mg/kg xylazine and 75 mg/kg ketamine (i.p). The fur on the left side of the spine was then shaved to expose the skin. The skin was cut parallel to the spine and the paravertebral muscles were separated. The L5 transverse apophysis was removed until the L5 spinal nerve was exposed. The L5 nerve was isolated and ligated with silk thread. Finally, the muscle and skin incisions were sutured and the wound was disinfected with iodophor and 75% ethyl alcohol. In the sham group, the rats underwent the same surgical procedure without the nerve ligation.

The subject of another data set is PTX rats. The data set can be described thus: Paclitaxel-induced neuropathy in rats (mechanical thresholds, paw immersion). The format is in vivo. As to conditions: rat model of paclitaxel-induced neuropathy, i.t., 0.2, 1 or 5 μg. The procedure:
as §1
Paw pressure test in rats: Rats were subjected to the paw pressure test previously described by Randall and Selitto (1957). Nociceptive thresholds, expressed in grams, were measured with a Ugo Basile analgesic meter (Apelex, probe tip diameter 1 mm, weight 30 g) by applying increasing pressure to the right hind paw of the rats until a pain sign (vocalization threshold) was obtained (cut-off was 750 g). Before the treatments, the rats were habituated to the test by handling them without subjecting them to paw pressure. Then, after obtaining two consecutive stable vocalization threshold values, the treatment effects were evaluated after 15, 30, 45, 60, 90, and 120 min. Results are expressed as vocalization thresholds, in grams. […] Data were analyzed by a 2-way ANOVA followed by a Bonferroni test, when the time course of the effects was studied. A one-way ANOVA followed by a Student Newman-Keuls test was used to analyze the effect of the different treatments determined by the CSAs. The level of statistical significance was set at p<0.05. […]

In the next data set the test system is mice. The data set can be described thus: Rotarod test (locomotor activity). The format is in vivo. The conditions noted are these: administered subcutaneously (2.5, 5, or 10 mg/kg, s.c.). The procedure:
Rotarod Test: For the Rotarod test (Bioseb), the animals were first habituated to remain on the stationary cylinder for 10 min before switching to another 10 min with a rotational speed of 4 rpm. The animals were given the drug immediately after training and the test was performed 30 min later. The test consisted of measuring the latency to fall of the animals as the rotation increased from 4 to 40 rpm linearly over 5 min. The average of the two closest values over 3 trials was calculated.
For orientation: Falling from the rotarod earlier than controls is read as motor impairment.

Data set [2] addresses T1, interaction between HCN and the TRIP8b tail (Homo sapiens, UniProt Q8IYB4).
T1 sequence (Q8IYB4 265-626 limits assumed): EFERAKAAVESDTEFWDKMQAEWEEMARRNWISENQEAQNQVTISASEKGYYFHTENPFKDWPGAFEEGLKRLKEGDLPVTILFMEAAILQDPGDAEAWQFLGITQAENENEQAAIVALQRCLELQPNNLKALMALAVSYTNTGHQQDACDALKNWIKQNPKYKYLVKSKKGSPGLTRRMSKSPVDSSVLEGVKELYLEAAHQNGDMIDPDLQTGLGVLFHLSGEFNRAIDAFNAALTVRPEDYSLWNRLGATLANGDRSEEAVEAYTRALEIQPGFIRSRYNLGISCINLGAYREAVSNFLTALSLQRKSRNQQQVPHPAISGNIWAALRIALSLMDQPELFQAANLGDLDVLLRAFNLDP
Nature of the data set: Fluorescence polarization assay, disruption of TRIP8b-HCN interaction. It is filed as binding. The conditions noted are these: compared with NUCC5953. The source says:
Fluorescence polarization assay: a fluorescence polarization (FP) based assay was used to identify compounds capable of disrupting the interaction between HCN and the TRIP8b tail, as published (Han et al., 2015).
On the technique in general: Fluorescence polarisation rises when a labelled molecule tumbles more slowly, as on binding a larger partner.

Square brackets hold non-standard residues; d marks the D form. Peptide text beside a SMILES is read from it. * marks the point of attachment. Gly(N-CH2CH2OH) = O=C(O)CNCCO; Nleu = CC(C)CNCC(=O)O; Bz = O=C(c1ccccc1)*

As for `CC(C)C[C@H](NC(=O)CCN(CCO)C(=O)CN(CCO)C(=O)CN(CC(C)C)C(=O)c1ccc([N+](=O)[O-])cc1)C(=O)O` [LF108], the analgesic effect entry in data set [1] (mouse, in vivo) is “demonstrated an analgesic effect”. As for `Cc1ccc(C(=O)N(CC(=O)N(CCO)CC(=O)N(CCO)CCC(=O)N[C@@H](CC(C)C)C(=O)O)CC(C)C)cc1` [LF126], the analgesic effect entry in data set [1] (mouse, in vivo) is “demonstrated an analgesic effect”. `CC(C)C[C@H](NC(=O)CCN(CC(N)=O)C(=O)CN(CCO)C(=O)CN(CC(C)C)C(=O)c1ccccc1)C(=O)O` [LF176]: in data set [1] (mouse, in vivo), the analgesic effect entry is reported as “demonstrated an analgesic effect”.

For the molecule `CC(C)C[C@H](NC(=O)CCN(CCO)C(=O)CN(CCO)C(=O)CN(CC(C)C)C(=O)c1ccc(C(F)(F)F)cc1)C(=O)O` [LF188], the analgesic effect result in data set [1] (mouse, in vivo) is “demonstrated an analgesic effect”. As to `CCCCN(CC(=O)N(CCO)CC(=O)N(CCO)CCC(=O)N[C@@H](CC(C)C)C(=O)O)C(=O)c1ccccc1` [LF222], the analgesic effect result in data set [1] (mouse, in vivo) is reported as “demonstrated an analgesic effect”. For `CC(C)C[C@H](NC(=O)CCN(CCO)C(=O)CN(CCO)C(=O)CN(Cc1ccccc1)C(=O)C(C)C)C(=O)O` [LF239], in data set [1] (mouse, in vivo), the analgesic effect entry is recorded as “demonstrated an analgesic effect”. On to `CC(C)C[C@H](NC(=O)CCN(CCO)C(=O)CN(CCO)C(=O)CN(CC(C)C)C(=O)c1ccc(F)cc1)C(=O)O` [LF261], for which the analgesic effect entry in data set [1] (mouse, in vivo) is listed as “demonstrated an analgesic effect”. As for `CC(C)C[C@H](NC(=O)CCN(CCO)C(=O)CN(CCO)C(=O)CN(C(=O)c1ccccc1)C(C)C)C(=O)O` [LF295], in data set [1] (mouse, in vivo), the analgesic effect result is given as “demonstrated an analgesic effect”. As to `CC(C)C[C@H](NC(=O)CCN(CCO)C(=O)CN(CCO)C(=O)CN(CC(C)(C)C)C(=O)c1ccccc1)C(=O)O` [LF306], the analgesic effect entry in data set [1] (mouse, in vivo) was “demonstrated an analgesic effect”. With `CC(C)C[C@H](NC(=O)CCN(CCO)C(=O)CN(CCN)C(=O)CN(CC(C)C)C(=O)c1ccccc1)C(=O)O` [LF329], in data set [1] (mouse, in vivo), the analgesic effect entry was “demonstrated an analgesic effect”. Take `CC(=O)N(CCO)CC(=O)N(CCO)CCC(=O)N[C@@H](CC(C)C)C(=O)O` [LF369]: the analgesic effect result in data set [1] (OIPN mice, 5 μg, i.t.) is “demonstrated an analgesic effect”. Consider `Cc1cccc(C(=O)N(CC(=O)N(CCO)CC(=O)N(CCO)CCC(=O)N[C@@H](CC(C)C)C(=O)O)CC(C)C)c1` [LF400], for which the analgesic effect result in data set [1] (mouse, in vivo) was “demonstrated an analgesic effect”. In the case of `CC(C)C[C@H](NC(=O)CCN(CCO)C(=O)CN(CCO)C(=O)CN(Cc1ccccc1)C(=O)c1ccccc1)C(=O)O` [MP208], the analgesic effect entry in data set [1] (mouse, in vivo) is recorded as “demonstrated an analgesic effect”. Consider `CC(C)C[C@H](NC(=O)CCN(CCO)C(=O)CN(CCO)C(=O)CN(CC(C)C)C(=O)Cc1ccccc1)C(=O)O` [MP341], for which the analgesic effect entry in data set [1] (OIPN mice, 10 mg/kg, s.c.) is listed as “demonstrated an analgesic effect”. Turning to `CC(C)C[C@H](NC(=O)CCN(CCCO)C(=O)CN(CCO)C(=O)CN(CC(C)C)C(=O)c1ccccc1)C(=O)O` [MP354], the analgesic effect result in data set [1] (OIPN mice, 10 mg/kg, s.c.) is reported as “demonstrated an analgesic effect”.

Turning to `CC(C)C[C@H](NC(=O)CCN(CCO)C(=O)CN(CCCO)C(=O)CN(CC(C)C)C(=O)c1ccccc1)C(=O)O` [MP376], the analgesic effect result in data set [1] (OIPN mice, 10 mg/kg, s.c.) was “demonstrated an analgesic effect”. `CC(C)C[C@H](NC(=O)CN(CCO)C(=O)CN(CCO)C(=O)CN(CC(C)C)C(=O)c1ccccc1)C(=O)O` [MP405] (Bz-[Nleu][Gly(N-CH2CH2OH)][Gly(N-CH2CH2OH)]L-OH): the analgesic effect entry in data set [1] (mouse, in vivo) is recorded as “demonstrated an analgesic effect”.

For the molecule `CC(C)C[C@H](NC(=O)CCN(CCO)C(=O)CN(CCO)C(=O)CN(CC(C)C)C(=O)c1ccccc1)C(=O)O` [YC55], in the data set on neuropathic rats, the antihyperalgesic effect entry is “antihyperalgesic effect”. Moreover, in data set [1] (OIPN mice, i.t., 0.2, 1, 5 μg/mouse), the “dose-dependent analgesic effect / reversal of oxaliplatin-induced acute cold hypersensitivity” value was “dose-dependent analgesic effect”. Moreover, the dose-dependent analgesic effect result in data set [1] (OIPN mice, s.c., 2.5, 5 or 10 mg/kg) is recorded as “dose-dependent analgesic effect”; with PTX rats it was “dose-dependent analgesic effect”. For the same molecule, the “alteration in locomotor activity” value in the data set with mice is reported as “No alteration in locomotor activity”. The “potency in disrupting the TRIP8b-HCN interaction” value in data set [2] was “equal potency to NUCC5953”.
